Source: patent US8952024B2, “Herbicidal pyrimidone derivatives” (E I du Pont de Nemours and Company, priority 2009, dated 2015)

Tests used:
Assay type in all cases: in vivo
[1] = tested on: umbrella sedge (Cyperus difformis); assay: Test B flooded paddy test
Method in brief: (§1)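 Plants were grown to the 2-leaf stage, then pots were flooded to 3 cm above the soil and compounds were applied directly into the paddy water. That depth was held throughout. After 13 to 15 days in a greenhouse, injury was visually rated against controls on a 0–100 scale.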

rice (Oryza sativa) = assay: Test B flooded paddy test
Method in brief: as §1

[2] = tested on: green foxtail (Setaria viridis); assay: Test B pre-/postemergence plant response
Method in brief: (§2)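 Visually scored on a 0 to 100 scale after 13 to 15 days in greenhouse versus controls. Treatments were preemergence on seeded loam/sand soil and postemergence on 1- to 4-leaf plants.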

[3] = tested on: goosegrass (Eleusine indica); assay: Test B pre-/postemergence plant response
Method in brief: as §2

[4] = tested on: giant foxtail (Setaria faberii); assay: Test B pre-/postemergence plant response
Method in brief: as §2

[5] = tested on: Surinam grass (Brachiaria decumbens); assay: Test B pre-/postemergence plant response
Method in brief: as §2

[6] = tested on: ragweed (common ragweed, Ambrosia elatior); assay: Test B pre-/postemergence plant response
Method in brief: as §2

[7] = tested on: blackgrass (Alopecurus myosuroides); assay: Test B pre-/postemergence plant response
Method in brief: as §2

[8] = tested on: pigweed (Amaranthus retroflexus); assay: Test B pre-/postemergence plant response
Method in brief: as §2

[9] = tested on: lambsquarters (Chenopodium album); assay: Test B pre-/postemergence plant response
Method in brief: as §2

wild oat (Avena fatua) = assay: Test B pre-/postemergence plant response
Method in brief: as §2

[10] = tested on: johnsongrass (Sorghum halepense); assay: Test B pre-/postemergence plant response
Method in brief: as §2

corn (Zea mays) = assay: Test B pre-/postemergence plant response
Method in brief: as §2

[11] = 250 g ai/ha, flooded paddy test, visual rating on 0 to 100 scale (0 no effect, 100 complete control) after 13 to 15 days
[12] = Flood (flooded paddy test), 62 g ai/ha, scale of 0 to 100 where 0 is no effect and 100 is complete control, 13 to 15 days
[13] = 31 g ai/ha, postemergence, scale 0 to 100, 0 is no effect, 100 is complete control
[14] = 62 g ai/ha, postemergence, 0 is no effect, 100 is complete control, 13 to 15 days
[15] = Postemergence, 125 g ai/ha, visual rating after 13 to 15 days, scale 0 (no effect) to 100 (complete control)
[16] = Postemergence, 250 g ai/ha, scale 0 to 100 (0 no effect, 100 complete control)
[17] = Preemergence, 31 g ai/ha, scale 0 to 100 (0 no effect, 100 complete control)
[18] = Preemergence, 62 g ai/ha, scale 0 to 100 (0 no effect, 100 complete control)
[19] = Preemergence, 125 g ai/ha, scale 0 to 100, 0 no effect, 100 complete control
[20] = Preemergence, 250 g ai/ha, 0 to 100 scale

CCCn1c(-c2cccs2)ncc(C(=O)C2=C(O)CCCC2=O)c1=O [Compound 77]
5: Plant response rating, Foxtail, Giant [4, 19] | Plant response rating, Blackgrass [7, 16] | Oat, Wild plant response rating (0 to 100 scale) (wild oat (Avena fatua); [14]) | Plant response rating, Oat, Wild (wild oat (Avena fatua); [15]) | Plant response rating, Oat, Wild (wild oat (Avena fatua); [16]) | Corn plant response rating (0 to 100 scale) (corn (Zea mays); [14])
100: Surinam Grass plant response rating [5, 20] | Plant response rating, Pigweed [8, 15] | Plant response rating, Pigweed [8, 16] | Plant response rating, Pigweed [8, 17] | Plant response rating, Pigweed [8, 18] | Plant response rating, Pigweed [8, 19] | Pigweed plant response rating [8, 20] | Plant response rating, Lambsquarters [9, 19] | Lambsquarters plant response rating [9, 20]
98: Plant response rating, Goosegrass [3, 19] | Goosegrass plant response rating [3, 20] | Plant response rating, Pigweed [8, 13] | Pigweed plant response rating (0 to 100 scale) [8, 14] | Lambsquarters plant response rating (0 to 100 scale) [9, 14] | Plant response rating, Lambsquarters [9, 15] | Plant response rating, Lambsquarters [9, 16] | Plant response rating, Lambsquarters [9, 17] | Plant response rating, Lambsquarters [9, 18]
10: Plant response rating, Johnsongrass [10, 15] | Plant response rating, Johnsongrass [10, 16]
45: Foxtail, Giant plant response rating [4, 20]
95: Plant response rating, Goosegrass [3, 18] | Ragweed plant response rating [6, 20] | Plant response rating, Lambsquarters [9, 13]
75: Goosegrass plant response rating (0 to 100 scale) [3, 14] | Plant response rating, Goosegrass [3, 15] | Foxtail, Giant plant response rating (0 to 100 scale) [4, 14] | Plant response rating, Foxtail, Giant [4, 15] | Plant response rating, Surinam Grass [5, 15] | Plant response rating, Surinam Grass [5, 19] | Plant response rating, Ragweed [6, 13] | Ragweed plant response rating (0 to 100 scale) [6, 14] | Plant response rating, Ragweed [6, 18] | Plant response rating, Corn (corn (Zea mays); [16])
0: Plant response rating, Rice (rice (Oryza sativa); [12]) | Plant response rating, Foxtail, Green [2, 17] | Plant response rating, Foxtail, Green [2, 18] | Plant response rating, Foxtail, Green [2, 19] | Plant response rating, Foxtail, Giant [4, 17] | Plant response rating, Foxtail, Giant [4, 18] | Plant response rating, Surinam Grass [5, 17] | Plant response rating, Blackgrass [7, 13] | Blackgrass plant response rating (0 to 100 scale) [7, 14] | Plant response rating, Blackgrass [7, 15] | Plant response rating, Blackgrass [7, 17] | Plant response rating, Blackgrass [7, 18] | Plant response rating, Blackgrass [7, 19] | Blackgrass plant response rating [7, 20] | Plant response rating, Oat, Wild (wild oat (Avena fatua); [13]) | Plant response rating, Oat, Wild (wild oat (Avena fatua); [17]) | Plant response rating, Oat, Wild (wild oat (Avena fatua); [18]) | Plant response rating, Oat, Wild (wild oat (Avena fatua); [19]) | Oat, Wild plant response rating (wild oat (Avena fatua); [20]) | Plant response rating, Johnsongrass [10, 13] | Johnsongrass plant response rating (0 to 100 scale) [10, 14] | Plant response rating, Johnsongrass [10, 17] | Plant response rating, Johnsongrass [10, 18] | Plant response rating, Johnsongrass [10, 19] | Johnsongrass plant response rating [10, 20] | Plant response rating, Corn (corn (Zea mays); [13]) | Plant response rating, Corn (corn (Zea mays); [17]) | Plant response rating, Corn (corn (Zea mays); [18]) | Plant response rating, Corn (corn (Zea mays); [19]) | Corn plant response rating (corn (Zea mays); [20])
15: Plant response rating, Flood, Rice (rice (Oryza sativa); [11]) | Foxtail, Green plant response rating [2, 20]
90: Plant response rating, Ragweed [6, 19]
85: Plant response rating, Goosegrass [3, 16] | Plant response rating, Ragweed [6, 16]
55: Plant response rating, Goosegrass [3, 17]
20: Plant response rating, Surinam Grass [5, 18]
40: Plant response rating, Flood, Sedge, Umbrella [1, 11] | Plant response rating, Sedge, Umbrella [1, 12] | Plant response rating, Foxtail, Green [2, 13]
50: Plant response rating, Ragweed [6, 17]
80: Foxtail, Green plant response rating (0 to 100 scale) [2, 14] | Plant response rating, Foxtail, Green [2, 15] | Plant response rating, Foxtail, Green [2, 16] | Plant response rating, Foxtail, Giant [4, 16] | Plant response rating, Surinam Grass [5, 16] | Plant response rating, Ragweed [6, 15]
65: Plant response rating, Goosegrass [3, 13] | Plant response rating, Foxtail, Giant [4, 13] | Plant response rating, Surinam Grass [5, 13] | Surinam Grass plant response rating (0 to 100 scale) [5, 14]
60: Plant response rating, Corn (corn (Zea mays); [15])
